pIC50: −log10 of the molar value.
Tested on: 855422-203-R-J1-PDC complex spheroid viability
Assay: Anticancer human tumor 855422-203-R-J1-PDC patient-derived bladder carcinoma cell line growth inhibition
Settings: for pIC50: curve of first compound; for viability, T/C: stronger effect = lower value
How it was run: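 Complex spheroids of tumor cells with HUVEC and human MSCs, exposed to iadademstat combined with other agents. Each agent tested in half-log steps from near clinical Cmax (else 10 microM top), DMSO ≤0.25%.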

[1] = second compound 0.1 µM, first compound 0.00949 µM
[2] = second compound 0.1 µM, first compound 0.03 µM
[3] = second compound 0.1 µM, first compound 0.0949 µM
[4] = second compound 0.1 µM, first compound 0.3 µM
[5] = second compound 0.1 µM, first compound 0.949 µM
[6] = second compound 0.1 µM, first compound 3 µM
[7] = second compound 0.316 µM, first compound 0.00949 µM
[8] = second compound 0.316 µM, first compound 0.03 µM
[9] = second compound 0.316 µM, first compound 0.0949 µM
[10] = second compound 0.316 µM, first compound 0.3 µM
[11] = second compound 0.316 µM, first compound 0.949 µM
[12] = second compound 0.316 µM, first compound 3 µM
[13] = second compound 1 µM, first compound 0.00949 µM
[14] = second compound 1 µM, first compound 0.03 µM
[15] = second compound 1 µM, first compound 0.0949 µM
[16] = second compound 1 µM, first compound 0.3 µM
[17] = second compound 1 µM, first compound 0.949 µM
[18] = second compound 1 µM, first compound 3 µM
[19] = second compound 3.16 µM, first compound 0.00949 µM
[20] = second compound 3.16 µM, first compound 0.03 µM
[21] = second compound 3.16 µM, first compound 0.0949 µM
[22] = second compound 3.16 µM, first compound 0.3 µM
[23] = second compound 3.16 µM, first compound 0.949 µM
[24] = second compound 3.16 µM, first compound 3 µM
[25] = second compound 10 µM, first compound 0.00949 µM
[26] = second compound 10 µM, first compound 0.03 µM
[27] = second compound 10 µM, first compound 0.0949 µM
[28] = second compound 10 µM, first compound 0.3 µM
[29] = second compound 10 µM, first compound 0.949 µM
[30] = second compound 10 µM, first compound 3 µM
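Also: drug exposure lasted 7 days starting on day 3 after seeding.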
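For viability, T/C in this document: luminescence viability as percent of DMSO vehicle wells = 100%.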

In the case of NS(=O)(=O)OCC1CC(n2ccc3c(NC4CCc5ccccc54)ncnc32)CC1O (stereo not given) + NC1CCC(NC2CC2c2ccccc2)CC1, the pIC50 (second compound 0.1 µM) was 6.15, the pIC50 (second compound 0.316 µM) was 6.12 and the pIC50 (second compound 1 µM) was 6.13. For the same compound, the pIC50 (second compound 3.16 µM) was 6.23, the pIC50 (second compound 10 µM) was 6.33 and the viability, T/C [1] was 102%. It also gave a viability, T/C [2] of 102%, a viability, T/C [3] of 102% and a viability, T/C [4] of 88.6%. For the same compound, the viability, T/C [5] was 36.9%, the viability, T/C [6] was 14.8% and the viability, T/C [7] was 100%. The viability, T/C [8] was 98.6%, the viability, T/C [9] was 76.6% and the viability, T/C [10] was 87.4%. It also gave a viability, T/C [11] of 41.5%, a viability, T/C [12] of 13.9% and a viability, T/C [13] of 105%. For the same compound, the viability, T/C [14] was 108%, the viability, T/C [15] was 79.9% and the viability, T/C [16] was 83%. For the same compound, the viability, T/C [17] was 38.9%, the viability, T/C [18] was 17.4% and the viability, T/C [19] was 95.3%. The viability, T/C [20] was 90%, the viability, T/C [21] was 80% and the viability, T/C [22] was 74.5%. For the same compound, the viability, T/C [23] was 34.1%, the viability, T/C [24] was 9.44% and the viability, T/C [25] was 86.9%. For the same compound, the viability, T/C [26] was 95.7%, the viability, T/C [27] was 70.9% and the viability, T/C [28] was 69.9%. It also gave a viability, T/C [29] of 23.8% and a viability, T/C [30] of 10.1%.

O=C(C=Cc1cccc(S(=O)(=O)Nc2ccccc2)c1)NO + NC1CCC(NC2CC2c2ccccc2)CC1 gave a pIC50 (second compound 0.1 µM) of 6.34, a pIC50 (second compound 0.316 µM) of 6.33 and a pIC50 (second compound 1 µM) of 6.53. The pIC50 (second compound 3.16 µM) was 6.46, the pIC50 (second compound 10 µM) was 6.45 and the viability, T/C [1] was 88.3%. The viability, T/C [2] was 88.7%, the viability, T/C [3] was 91.3% and the viability, T/C [4] was 68.9%. The viability, T/C [5] was 15.2%, the viability, T/C [6] was 0.2% and the viability, T/C [7] was 96.1%. It also gave a viability, T/C [8] of 88.6%, a viability, T/C [9] of 80.7% and a viability, T/C [10] of 71.8%. For the same compound, the viability, T/C [11] was 17.4%, the viability, T/C [12] was 0.2% and the viability, T/C [13] was 98%. The viability, T/C [14] was 90.1%, the viability, T/C [15] was 67.7% and the viability, T/C [16] was 59.2%. The viability, T/C [17] was 13.4%, the viability, T/C [18] was 0.17% and the viability, T/C [19] was 94%. For the same compound, the viability, T/C [20] was 92%, the viability, T/C [21] was 81.6% and the viability, T/C [22] was 57.4%. The viability, T/C [23] was 7.23%, the viability, T/C [24] was 0.14% and the viability, T/C [25] was 90.8%. It also gave a viability, T/C [26] of 82.7%, a viability, T/C [27] of 78.9% and a viability, T/C [28] of 58.5%. For the same compound, the viability, T/C [29] was 5.21% and the viability, T/C [30] was 0.59%.
